SMILES strings stand for the structures. Starred links: 1 amine or outer side, 2 acyl side, 3 side chain; linkers in the order of their positions; H or OH if unused. Positions of bridges follow the written chain, without caps; N, C: chain ends. Non-standard residues stand in square brackets, D forms with d. Residues, ends and D or L forms follow the SMILES beside them. Groups on a side chain read outwards from the residue. *: point of attachment. X3 = O=C(O)CCCCCCCCCCCCCCCCCCC(=O)N[C@@H](CCC(=O)NCOCCOCC(=O)NCOCCOCC(=O)*)C(=O)O; X1 = O=C(O)CCCCCCCCCCCCCCCCCCC(=O)NCOCCOCC(=O)*; C20 diacid = O=C(O)CCCCCCCCCCCCCCCCCCC(=O)*; C18 diacid = O=C(O)CCCCCCCCCCCCCCCCC(=O)*; γGlu = O=C(O)[C@H](CCC(=O)[*:2])N[*:1]; Palmitoyl = CCCCCCCCCCCCCCCC(=O)*

The values that follow come from patent publication US12018059B2, “Human amylin analog polypeptides and methods of use” (Intarcia Therapeutics, Inc., priority 2018, dated 2024).

The nature of this series: in vivo. The note with it: rat, iv, 0.033 mg/kg. Further details: species or system Sprague-Dawley rats. In outline: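 Male Sprague-Dawley rats, non-fasted (n=3), given peptide in saline as 1-h IV or SC infusion at 0.033 mg/kg, or SC bolus at 0.3 mg/kg; jugular blood to 48 h into K2EDTA plus protease inhibitors. Plasma extracted by precipitation or WCX solid-phase extraction, quantified by UPLC-MS/MS against standards in matching rat plasma.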

Take `CC[C@H](C)[C@H](NC(=O)[C@@H]1CCCN1C(=O)CNC(=O)[C@H](Cc1ccccc1)NC(=O)[C@H](CC(N)=O)NC(=O)[C@H](CC(N)=O)NC(=O)[C@H](CO)NC(=O)[C@H](CO)NC(=O)[C@H](CCCCN)NC(=O)[C@H](Cc1c[nH]cn1)NC(=O)[C@H](CC(C)C)NC(=O)[C@H](CCCCNC(=O)CC[C@H](NC(=O)CC[C@H](NC(=O)CCCCCCCCCCCCCCCCC(=O)O)C(=O)O)C(=O)O)NC(=O)[C@H](CC(N)=O)NC(=O)[C@H](C)NC(=O)[C@H](CC(C)C)NC(=O)[C@H](CCCNC(=N)N)NC(=O)[C@H](CCC(N)=O)NC(=O)[C@@H](NC(=O)[C@H](C)NC(=O)[C@@H]1CSSC[C@H](NC(=O)[C@@H](N)CO)C(=O)N[C@@H](CC(N)=O)C(=O)N[C@@H]([C@@H](C)O)C(=O)N[C@@H](CO)C(=O)N[C@@H]([C@@H](C)O)C(=O)N1)[C@@H](C)O)C(=O)N[C@@H](CC(C)C)C(=O)N1CCC[C@H]1C(=O)N1CCC[C@H]1C(=O)N[C@H](C(=O)N[C@@H](CCCCN)C(=O)N[C@H](C(=O)NCC(=O)N[C@@H](CO)C(=O)N[C@@H](CCC(=O)O)C(=O)N[C@H](C(=O)N[C@@H](Cc1ccc(O)cc1)C(N)=O)[C@@H](C)O)C(C)C)[C@@H](C)O` [Compound A87] (H-SCNTSTCATQRLANK([γGlu-γGlu-C18 diacid])LHKSSNNFGPILPPTKVGSETY-NH2; disulfide 2-7): the distribution volume (Vd) – broadly, the apparent volume that relates the amount in the body to the concentration in plasma or blood – was found to be 0.143 L/kg; the clearance (in general, the volume of plasma or blood freed of the substance per unit of time) is 0.108 mL/min/kg; the half-life (in general, the time needed for the level to fall by half in the phase considered) was 17.7 h.

As to `CCCCCCCCCCCCCCCC(=O)N[C@@H](CCC(=O)N[C@@H](CCC(=O)N[C@@H](CCC(=O)N[C@@H](CCC(=O)N[C@@H](CCC(=O)NCCCC[C@@H](NC(=O)[C@H](CCC(=O)O)NC(=O)[C@H](CC(N)=O)NC(=O)[C@H](C)NC(=O)[C@H](CC(C)C)NC(=O)[C@H](CCCNC(=N)N)NC(=O)[C@H](CCC(N)=O)NC(=O)[C@@H](NC(=O)[C@H](C)NC(=O)[C@@H]1CSSC[C@H](NC(=O)[C@@H](N)CO)C(=O)N[C@@H](CC(N)=O)C(=O)N[C@@H]([C@@H](C)O)C(=O)N[C@@H](CO)C(=O)N[C@@H]([C@@H](C)O)C(=O)N1)[C@@H](C)O)C(=O)N[C@@H](Cc1c[nH]cn1)C(=O)N[C@@H](CCCCN)C(=O)N[C@@H](CO)C(=O)N[C@@H](CO)C(=O)N[C@@H](CC(N)=O)C(=O)N[C@@H](CC(N)=O)C(=O)N[C@@H](Cc1ccccc1)C(=O)NCC(=O)N1CCC[C@H]1C(=O)N[C@H](C(=O)N[C@@H](CC(C)C)C(=O)N1CCC[C@H]1C(=O)N1CCC[C@H]1C(=O)N[C@H](C(=O)N[C@@H](CCCCN)C(=O)N[C@H](C(=O)NCC(=O)N[C@@H](CO)C(=O)N[C@@H](CCC(=O)O)C(=O)N[C@H](C(=O)N[C@@H](Cc1ccc(O)cc1)C(N)=O)[C@@H](C)O)C(C)C)[C@@H](C)O)[C@@H](C)CC)C(=O)O)C(=O)O)C(=O)O)C(=O)O)C(=O)O` [Compound A91] (H-SCNTSTCATQRLANE[dK]([γGlu-γGlu-γGlu-γGlu-γGlu-Palmitoyl])HKSSNNFGPILPPTKVGSETY-NH2; disulfide 2-7), the Vd turned out to be 0.194 L/kg, the clearance amounted to 0.194 mL/min/kg and the half-life is 13.2 h.

Consider `CC[C@H](C)[C@H](NC(=O)[C@@H]1CCCN1C(=O)CNC(=O)[C@H](Cc1ccccc1)NC(=O)[C@H](CC(N)=O)NC(=O)[C@H](CC(N)=O)NC(=O)[C@H](CO)NC(=O)[C@H](CO)NC(=O)[C@H](CCCCN)NC(=O)[C@H](Cc1c[nH]cn1)NC(=O)[C@H](CCCCNC(=O)CCCCCCCCCCCCCCCCC(=O)O)NC(=O)[C@H](CCC(=O)O)NC(=O)[C@H](CC(N)=O)NC(=O)[C@H](C)NC(=O)[C@H](CC(C)C)NC(=O)[C@H](CCCNC(=N)N)NC(=O)[C@H](CCC(N)=O)NC(=O)[C@@H](NC(=O)[C@H](C)NC(=O)[C@@H]1CSSC[C@H](NC(=O)[C@@H](N)CO)C(=O)N[C@@H](CC(N)=O)C(=O)N[C@@H]([C@@H](C)O)C(=O)N[C@@H](CO)C(=O)N[C@@H]([C@@H](C)O)C(=O)N1)[C@@H](C)O)C(=O)N[C@@H](CC(C)C)C(=O)N1CCC[C@H]1C(=O)N1CCC[C@H]1C(=O)N[C@H](C(=O)N[C@@H](CCCCN)C(=O)N[C@H](C(=O)NCC(=O)N[C@@H](CO)C(=O)N[C@@H](CCC(=O)O)C(=O)N[C@H](C(=O)N[C@@H](Cc1ccc(O)cc1)C(N)=O)[C@@H](C)O)C(C)C)[C@@H](C)O` [Compound A93] (H-SCNTSTCATQRLANEK(C18 diacid)HKSSNNFGPILPPTKVGSETY-NH2; disulfide 2-7), for which the Vd was 0.129 L/kg, the clearance came out at 0.109 mL/min/kg and the half-life is 16.7 h.

With `CC[C@H](C)[C@H](NC(=O)[C@@H]1CCCN1C(=O)CNC(=O)[C@H](Cc1ccccc1)NC(=O)[C@H](CC(N)=O)NC(=O)[C@H](CC(N)=O)NC(=O)[C@H](CO)NC(=O)[C@H](CO)NC(=O)[C@H](CCCCN)NC(=O)[C@H](Cc1c[nH]cn1)NC(=O)[C@H](CC(C)C)NC(=O)[C@H](CCCCNC(=O)CC[C@H](NC(=O)CC[C@H](NC(=O)COCCOCNC(=O)COCCOCNC(=O)CC[C@H](NC(=O)CCCCCCCCCCCCCCCCCCC(=O)O)C(=O)O)C(=O)O)C(=O)O)NC(=O)[C@H](CC(N)=O)NC(=O)[C@H](C)NC(=O)[C@H](CC(C)C)NC(=O)[C@H](CCCNC(=N)N)NC(=O)[C@H](CCC(N)=O)NC(=O)[C@@H](NC(=O)[C@H](C)NC(=O)[C@@H]1CSSC[C@H](NC(=O)[C@@H](N)CO)C(=O)N[C@@H](CC(N)=O)C(=O)N[C@@H]([C@@H](C)O)C(=O)N[C@@H](CO)C(=O)N[C@@H]([C@@H](C)O)C(=O)N1)[C@@H](C)O)C(=O)N[C@@H](CC(C)C)C(=O)N1CCC[C@H]1C(=O)N1CCC[C@H]1C(=O)N[C@H](C(=O)N[C@@H](CCCCN)C(=O)N[C@H](C(=O)NCC(=O)N[C@@H](CO)C(=O)N[C@@H](CCC(=O)O)C(=O)N[C@H](C(=O)N[C@@H](Cc1ccc(O)cc1)C(N)=O)[C@@H](C)O)C(C)C)[C@@H](C)O` [Compound A94] (H-SCNTSTCATQRLANK([γGlu-γGlu-X3])LHKSSNNFGPILPPTKVGSETY-NH2; disulfide 2-7; N-terminus assumed), the Vd was determined as 0.084 L/kg, the clearance stood at 0.0365 mL/min/kg and the half-life was 29.3 h.

In turn, `CC[C@H](C)[C@H](NC(=O)[C@@H]1CCCN1C(=O)CNC(=O)[C@H](Cc1ccccc1)NC(=O)[C@H](CC(N)=O)NC(=O)[C@H](CC(N)=O)NC(=O)[C@H](CO)NC(=O)[C@H](CO)NC(=O)[C@H](CCCCN)NC(=O)[C@H](Cc1c[nH]cn1)NC(=O)[C@H](CC(C)C)NC(=O)[C@@H](CCCCNC(=O)CC[C@H](NC(=O)CC[C@H](NC(=O)COCCOCNC(=O)CCCCCCCCCCCCCCCCCCC(=O)O)C(=O)O)C(=O)O)NC(=O)[C@H](CC(N)=O)NC(=O)[C@H](C)NC(=O)[C@H](CC(C)C)NC(=O)[C@H](CCCNC(=N)N)NC(=O)[C@H](CCC(N)=O)NC(=O)[C@@H](NC(=O)[C@H](C)NC(=O)[C@@H]1CSSC[C@H](NC(=O)[C@@H](N)CO)C(=O)N[C@@H](CC(N)=O)C(=O)N[C@@H]([C@@H](C)O)C(=O)N[C@@H](CO)C(=O)N[C@@H]([C@@H](C)O)C(=O)N1)[C@@H](C)O)C(=O)N[C@@H](CC(C)C)C(=O)N1CCC[C@H]1C(=O)N1CCC[C@H]1C(=O)N[C@H](C(=O)N[C@@H](CCCCN)C(=O)N[C@H](C(=O)NCC(=O)N[C@@H](CO)C(=O)N[C@@H](CCC(=O)O)C(=O)N[C@H](C(=O)N[C@@H](Cc1ccc(O)cc1)C(N)=O)[C@@H](C)O)C(C)C)[C@@H](C)O` [Compound A96] (H-SCNTSTCATQRLAN[dK]([γGlu-γGlu-X1])LHKSSNNFGPILPPTKVGSETY-NH2; disulfide 2-7; N-terminus assumed) showed a Vd of 0.153 L/kg, a clearance of 0.0996 mL/min/kg and a half-life of 20.1 h.

For `CC[C@H](C)[C@H](NC(=O)[C@@H]1CCCN1C(=O)CNC(=O)[C@H](Cc1ccccc1)NC(=O)[C@H](CC(N)=O)NC(=O)[C@H](CC(N)=O)NC(=O)[C@H](CO)NC(=O)[C@H](CO)NC(=O)[C@H](CCCCN)NC(=O)[C@H](Cc1c[nH]cn1)NC(=O)[C@H](CC(C)C)NC(=O)[C@@H](CCCCNC(=O)CC[C@H](NC(=O)CC[C@H](NC(=O)CCCCCCCCCCCCCCCCCCC(=O)O)C(=O)O)C(=O)O)NC(=O)[C@H](CC(N)=O)NC(=O)[C@H](C)NC(=O)[C@H](CC(C)C)NC(=O)[C@H](CCCNC(=N)N)NC(=O)[C@H](CCC(N)=O)NC(=O)[C@@H](NC(=O)[C@H](C)NC(=O)[C@@H]1CSSC[C@H](NC(=O)[C@@H](N)CO)C(=O)N[C@@H](CC(N)=O)C(=O)N[C@@H]([C@@H](C)O)C(=O)N[C@@H](CO)C(=O)N[C@@H]([C@@H](C)O)C(=O)N1)[C@@H](C)O)C(=O)N[C@@H](CC(C)C)C(=O)N1CCC[C@H]1C(=O)N1CCC[C@H]1C(=O)N[C@H](C(=O)N[C@@H](CCCCN)C(=O)N[C@H](C(=O)NCC(=O)N[C@@H](CO)C(=O)N[C@@H](CCC(=O)O)C(=O)N[C@H](C(=O)N[C@@H](Cc1ccc(O)cc1)C(N)=O)[C@@H](C)O)C(C)C)[C@@H](C)O` [Compound A97] (H-SCNTSTCATQRLAN[dK]([γGlu-γGlu-C20 diacid])LHKSSNNFGPILPPTKVGSETY-NH2; disulfide 2-7), the Vd was found to be 0.0995 L/kg, the clearance was 0.0604 mL/min/kg and the half-life was 21 h.
